This passage reports selectivity ratio, IC50 and inhibition of growth results from ChEMBL document CHEMBL3132828, “In vitro anticancer activity and SAR studies of triazolyl aminoacyl(peptidyl) penicillins” (Medchemcomm, 2014).

Series [1] in a line: Selectivity ratio of IC50 for mouse NMuMG cells to IC50 for mouse B16F0 cells. Format: ADME, cell-based. The following applies: NMuMG cells and B16F0 cells, read-out: Ratio IC50.
A short description of series [2]: Cytotoxicity against mouse NMuMG cells assessed as hexosaminidase level after 72 hrs by colorimetric analysis. The format is cell-based.
Series [3] in a line: Cytotoxicity against mouse B16F0 cells assessed as hexosaminidase level after 72 hrs by colorimetric analysis. Format: functional, cell-based. The following applies: B16F0, 72 h.
Series [4] relates to HeLa. The experiment in a line: Cytotoxicity against human HeLa cells assessed as hexosaminidase level after 72 hrs by colorimetric analysis. The format is functional, cell-based.
Series [5] in a line: Selectivity ratio of IC50 for mouse NMuMG cells to IC50 for human HeLa cells. The format is ADME, cell-based. The following applies: NMuMG cells and HeLa cells, read-out: Ratio IC50.
Series [6] has as its system HeLa. Kind of series: Cytotoxicity against human HeLa cells assessed as growth inhibition at 20 uM after 72 hrs by colorimetric analysis relative to control. The following applies: read-out: GI. Format: functional.

Broadly, the IC50 is the concentration that gives 50% inhibition. For `COC(=O)[C@H](Cc1ccccc1)NC(=O)[C@H](CC(C)C)NC(=O)c1cn(C[C@@H]2N3C(=O)C(Br)(Br)[C@H]3S(=O)(=O)C2(C)C)nn1`, the selectivity ratio in series [1] and in series [5] was 3.5 each time. In addition, the IC50 came to 7 µM in series [2], 2 µM in series [3] and 2 µM with HeLa [4].
For `CC[C@H](C)[C@H](NC(=O)c1cn(C[C@@H]2N3C(=O)C(Br)(Br)[C@H]3SC2(C)C)nn1)C(=O)N[C@@H](Cc1ccc(O)cc1)C(=O)OC`, the selectivity ratio in series [1] turned out to be 5. In addition, the inhibition of growth at 20 µM in the series on HeLa [6] is below 50%. Moreover, the IC50 came to 95 µM in series [2] and 20 µM in series [3].
In the case of `CC[C@H](C)[C@H](NC(=O)c1cn(C[C@@H]2N3C(=O)C(Br)(Br)[C@H]3SC2(C)C)nn1)C(=O)N[C@@H](Cc1ccccc1)C(=O)OC`, the selectivity ratio in series [1] worked out at 9; in series [5] it was 5.5. The IC50 came to 83 µM in series [2], 9 µM in series [3] and 15 µM in the series on HeLa [4].
The matching figures for `COC(=O)[C@H](Cc1ccccc1)NC(=O)[C@@H](NC(=O)c1cn(C[C@@H]2N3C(=O)C(Br)(Br)[C@H]3SC2(C)C)nn1)C(C)C`: 19, 10.6, 170 µM, 9 µM and 16 µM.
`COC(=O)[C@H](Cc1ccccc1)NC(=O)[C@@H]1CCCN1C(=O)c1cn(C[C@@H]2N3C(=O)C(Br)(Br)[C@H]3SC2(C)C)nn1`: the selectivity ratio in series [1] was determined as 5; in series [5], 3. The IC50 in series [2] was determined as 55 µM; in series [3], 11 µM; in the series with HeLa [4], 17 µM.
In the same order, the values of `COC(=O)[C@H](CC(C)C)NC(=O)[C@H](CC(C)C)NC(=O)c1cn(C[C@@H]2N3C(=O)C(Br)(Br)[C@H]3SC2(C)C)nn1` are 22, 10, 88 µM, 4 µM and 9 µM.
The matching figures for `COC(=O)[C@H](Cc1ccccc1)NC(=O)c1cn(C[C@@H]2N3C(=O)C(Br)(Br)[C@H]3SC2(C)C)nn1`: 12.5, 9, 125 µM, 10 µM and 14 µM.
The matching figures for `COC(=O)[C@H](Cc1ccccc1)NC(=O)[C@H](CC(C)C)NC(=O)c1cn(C[C@@H]2N3C(=O)C(Br)(Br)[C@H]3SC2(C)C)nn1`: 34, 34, 102 µM, 3 µM and 3 µM.
On to `COC(=O)[C@H](Cc1ccccc1)NC(=O)[C@H](CCSC)NC(=O)c1cn(C[C@@H]2N3C(=O)C(Br)(Br)[C@H]3SC2(C)C)nn1`, for which the selectivity ratio came out at 30.5 in series [1] and 27.5 in series [5]. In addition, the figures for the IC50 (in series [2]; in series [3]; with HeLa [4]) were 275 µM, 9 µM and 10 µM, respectively.
The matching figures for `COC(=O)[C@H](Cc1ccccc1)NC(=O)[C@H](CC(C)C)NC(=O)c1cn(C[C@@H]2N3C(=O)C[C@H]3SC2(C)C)nn1`: 35.5, 27, 355 µM, 10 µM and 13 µM.
In the case of `COC(=O)[C@H](Cc1ccc(O)cc1)NC(=O)[C@H](CC(C)C)NC(=O)c1cn(C[C@@H]2N3C(=O)C(Br)(Br)[C@H]3SC2(C)C)nn1`, the selectivity ratio in series [1] was above 7. Besides, the inhibition of growth at 20 µM with HeLa [6] was below 50%. In addition, the IC50 in series [2] is above 160 µM; in series [3], 22 µM.
